Assay [1] has as its system CaNT tumours. Put plainly: Induction of tumour necrosis, CaNT tumours. It counts as in vivo, Mice. The following applies: tumours excised after 24 h, mean score 1-10, control 2.0. Here is the method:
(§1) Induction of Tumour Necrosis
(§2) Mice bearing either CaNT or SaS tumours were treated with the test compound and tumours excised after 24 h, fixed in formalin, embedded in paraffin, sectioned and stained with haematoxylin and eosin. Sections were scored based on the estimated area of necrosis as follows:
(§3) Control tumours had mean scores of 2.0 (CaNT) and 1.0 (SaS). The salts of the invention were more efficacious than their dihydrogen phosphate parent compounds.

The test system of assay [2] is CaNT tumour vasculature. Put plainly: Activity against tumour vasculature measured by fluorescent dye (Hoechst 33342 functional vascular volume). It counts as in vivo. The following applies: CaNT tumour-bearing mice, 24 hours after drug treatment. Here is the method: Activity Against Tumour Vasculature Measured by Fluorescent Dye.
Tumour functional vascular volume in CaNT tumour-bearing mice was measured using the fluorescent dye Hoechst 33342 according to the method of Smith et al (Brit J Cancer 57, 247-253, 1988). At least three animals were used in control and treated groups. The fluorescent dye was dissolved in saline at 6.25 mg/ml and injected intravenously at 10 mg/kg 24 hours after drug treatment. One minute later, animals were killed and tumours excised and frozen; 10 μm sections were cut at 3 different levels and observed under UV illumination using an Olympus microscope equipped with epifluorescence. Blood vessels were identified by their fluorescent outlines and vascular volume was quantified using a point scoring system based on that described by Chalkley, (J Natl Cancer Inst, 4, 47-53, 1943). All estimates were based on counting a minimum of 100 fields from sections cut at the 3 different levels. The salts of the invention were more efficacious than their dihydrogen phosphate parent compounds.

The test system of assay [3] is SaS tumours. Put plainly: Induction of tumour necrosis, SaS tumours. The conditions noted are these: tumours excised after 24 h, mean score 1-10, control 1.0. It counts as in vivo, Mice. Here is the method: as §1, §2, §3

Take `COc1cc(/C=C\c2ccc(C)c(OP(=O)(O)O)c2)cc(OC)c1OC` [(Z)-2-methyl-5-[2-(3,4-,5-trimethoxyphenyl)ethenyl]phenyl dihydrogen phosphate]: the Necrosis score in assay [1] (dose 100 mg/kg) stood at 5.3. Moreover, the “% Reduction in Vascular Volume” value in assay [2] (dose 100 mg/kg) came to 28%.

For `COc1ccc(/C=C\c2cc(OC)c(OC)c(OC)c2)cc1OP(=O)(O)O` [Combretastatin A4 phosphate, combretastatin A4 phosphate], the Necrosis score is 5.0 in assay [1] (dose 100 mg/kg) and 1.4 in assay [3] (dose 500 mg/kg). The “% Reduction in Vascular Volume” value in assay [2] (dose 100 mg/kg) stood at 26%.

Turning to `COc1cc(/C=C\c2ccc(C)c(OP(=O)(O)O)c2)cc(OC)c1OC.NC(=N[N+](=O)[O-])NCCCC(N)C(=O)O` [Example 2, (Z)-2-methyl-5-[2-(3,4,5-trimethoxyphenyl)ethenyl]phenyl (1-carboxy-4-N′-nitroguanidinobutylammonium) hydrogen phosphate], the Necrosis score in assay [1] (dose 50 mg/kg) worked out at 8.7; in assay [3] (dose 100 mg/kg), 7.7. The “% Reduction in Vascular Volume” value in assay [2] (dose 50 mg/kg) turned out to be 42%.

In assay [1] (dose 50 mg/kg), `COC(=O)C(N)CCCNC(N)=N[N+](=O)[O-].COc1cc(/C=C\c2ccc(C)c(OP(=O)(O)O)c2)cc(OC)c1OC` [Example 5, (Z)-2-methyl-5-[2-(3,4,5-trimethoxyphenyl)ethenyl]phenyl (1-methoxycarbonyl-4-N′-nitroguanidinobutylammonium) hydrogen phosphate] yielded a Necrosis score of 10.0. Also, in assay [2] (dose 50 mg/kg), the “% Reduction in Vascular Volume” value was 86%.

The values are drawn from US7105501B2, “Compositions with vascular damaging activity” (Angiogene Pharmaceuticals Ltd., priority 2000, dated 2006).
